Test results as given in patent US20010016568A1, “NOVEL METAL COMPLEXES” (priority 1997, published 2001).

T1: G-CSF receptor (Mus musculus, UniProt P40223)
T1 construct: they express endogenous G-CSF receptors; endogenous in cells; host or cells: NFS60 murine myeloid cells carrying a G-CSF-responsive luciferase reporter
T1 sequence (P40223 26-837): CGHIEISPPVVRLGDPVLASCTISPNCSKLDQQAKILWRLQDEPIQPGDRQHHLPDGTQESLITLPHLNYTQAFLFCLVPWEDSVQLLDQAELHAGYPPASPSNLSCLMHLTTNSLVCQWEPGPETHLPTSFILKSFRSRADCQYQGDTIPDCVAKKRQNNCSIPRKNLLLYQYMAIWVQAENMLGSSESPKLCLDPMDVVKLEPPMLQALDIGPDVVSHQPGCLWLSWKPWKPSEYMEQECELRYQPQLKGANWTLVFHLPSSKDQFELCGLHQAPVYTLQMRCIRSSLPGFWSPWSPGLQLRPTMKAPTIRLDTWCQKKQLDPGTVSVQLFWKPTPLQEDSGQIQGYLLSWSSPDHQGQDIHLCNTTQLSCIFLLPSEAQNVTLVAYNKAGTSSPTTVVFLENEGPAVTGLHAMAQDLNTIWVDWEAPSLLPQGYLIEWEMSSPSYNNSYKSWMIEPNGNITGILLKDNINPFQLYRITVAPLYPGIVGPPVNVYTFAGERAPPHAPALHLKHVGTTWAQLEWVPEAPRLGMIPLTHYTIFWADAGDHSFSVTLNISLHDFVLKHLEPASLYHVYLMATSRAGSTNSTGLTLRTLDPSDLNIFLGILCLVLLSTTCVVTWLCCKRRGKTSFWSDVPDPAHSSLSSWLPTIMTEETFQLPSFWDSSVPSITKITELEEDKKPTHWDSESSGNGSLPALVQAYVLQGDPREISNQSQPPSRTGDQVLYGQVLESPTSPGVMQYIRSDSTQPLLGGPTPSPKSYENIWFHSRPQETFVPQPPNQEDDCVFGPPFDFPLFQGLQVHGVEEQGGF

T2: G-CSF/Fc fusion protein (Mus musculus, UniProt P40223)
T2 construct: which contained the extracellular domain of the receptor presented in a dimeric form due to the Fc component
T2 sequence (P40223 26-626 limits assumed): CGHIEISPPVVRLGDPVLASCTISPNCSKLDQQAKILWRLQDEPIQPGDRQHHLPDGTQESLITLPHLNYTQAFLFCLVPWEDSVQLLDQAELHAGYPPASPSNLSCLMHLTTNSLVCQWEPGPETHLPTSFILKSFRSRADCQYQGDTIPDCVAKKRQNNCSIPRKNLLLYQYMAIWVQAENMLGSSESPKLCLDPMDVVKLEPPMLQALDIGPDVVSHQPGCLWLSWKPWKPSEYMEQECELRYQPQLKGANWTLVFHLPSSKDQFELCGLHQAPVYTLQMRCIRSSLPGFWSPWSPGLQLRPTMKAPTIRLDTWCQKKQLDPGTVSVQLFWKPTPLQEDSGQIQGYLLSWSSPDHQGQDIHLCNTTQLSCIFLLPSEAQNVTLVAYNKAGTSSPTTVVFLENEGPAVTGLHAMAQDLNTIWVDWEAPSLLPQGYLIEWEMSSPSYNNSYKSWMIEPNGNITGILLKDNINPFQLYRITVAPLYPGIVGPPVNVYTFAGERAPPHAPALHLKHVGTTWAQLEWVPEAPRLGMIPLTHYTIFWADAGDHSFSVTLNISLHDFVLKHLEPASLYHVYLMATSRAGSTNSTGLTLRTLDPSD


Experiments:
[1] = target: T1, G-CSF receptor; experiment: Luciferase assay in the presence of EDTA (NFS60 cells); assay type: cell-based, murine
Method: FIG. 3 is an analysis of the effect of ethylenediaminetetraacetic acid (as used herein—EDTA) on the activity of Compound 1a (from Example 1) in NFS60 cells. Shown are luciferase response curves of Compound 1a at the indicated concentrations and in the presence of various concentrations of EDTA. […] The media in this assay contained a small amount (1-5 μM) of zinc(II).
FIGS. 7 and 8 show an analysis of the effect of metal chlorides on the EDTA depleted activity of Compound 1a on NFS60 cells. Shown are luciferase response curves as effected by the indicated metal chlorides. […] None of the other metals tested could overcome the inhibitory effect of EDTA.
In order to determine the requisiteness of zinc chelation of small organic molecules to agonist activity at dimeric cell-surface receptors, the above luciferase assay was performed on the G-CSF receptor in the presence of EDTA. EDTA is a strong metal chelator and had as its only effect, the removal of zinc from the ligand-receptor interaction.

[2] = target: T2, G-CSF/Fc fusion protein; experiment: Isothermal titration microcalorimetry; assay type: binding; settings: only in the presence of zinc
Method: Zinc-mediated affinity of compounds from this invention for dimeric cell-surface receptors (specifically the G-CSF receptor) was measured by isothermal titration microcalorimetry experiments. Titration microcalorimetry detects binding as heat originating from the intrinsic bond forming enthalpy change. In this assay, the compounds were titrated first against zinc(II) alone. In a separate experiment, the compounds were then assayed in the presence of zinc and a dimeric cell-surface receptor/Fc fusion protein (a G-CSF/Fc fusion protein), which contained the extracellular domain of the receptor presented in a dimeric form due to the Fc component.

Molecule | effect of metal chlorides on the EDTA depleted luciferase activity ([1]; 50 micromolar EDTA, metal chlorides (zinc, manganese, iron, copper, cobalt)) | effect of EDTA on luciferase activity ([1]; EDTA at 1.2 millimolar, media contained 1-5 μM zinc(II)) | agonist activity in the presence of EDTA ([1]; FIG. 3) | affinity for the fusion protein construct [2] | effect of EDTA on luciferase activity ([1]; EDTA at both 1.2 and 5 millimolar)
c1ccc(C23NC(=Nc4nc5ccccc5[nH]4)NC2(c2ccccn2)NC(=Nc2nc4ccccc4[nH]2)N3)nc1 (stereo not drawn) [Compound 1a, 2,5-Bis[2-benzimidazolylimino]-3a,6a-bis(2-pyridyl)-1,2,3,3a,4,5,6,6a-octahydroimidazo[4,5-d]imidazole] | Only zinc (II) at concentrations 0.5-10 micromolar can overcome the inhibition | antagonized | abrogated | high, submicromolar affinity | 
Cc1ccc2nc(N=C3NC4(c5ccccn5)NC(=Nc5nc6ccccc6[nH]5)NC4(c4ccccn4)N3)[nH]c2c1.O=C(O)C(F)(F)F.O=C(O)C(F)(F)F (stereo not drawn) [Compound 3a, 5-(2-benzimidazolylimino)-2-[(5-methyl-2-benzimidazolyl)imino]-3a,6a-bis(2-pyridyl)-1,2,3,3a,4,5,6,6a-octahydroimidazo[4,5-d]imidazole bis(trifluoroacetate) salt] |  |  |  | high, submicromolar affinity | 
recombinant G-CSF: the natural ligand (i.e. G-CSF or recombinant G-CSF) (protein, UniProt P09919 31-207, looked up) Granulocyte …: TPLGPASSLPQSFLLKCLEQVRKIQGDGAALQEKLVSECATYKLCHPEELVLLGHSLGIPWAPLSSCPSQALQLAGCLSQLHSGLFLYQGLLQALEGISPELGPTLDTLQLDVADFATTIWQQMEELGMAPALQPTQGAMPAFASAFQRRAGGVLVASHLQSFLEVSYRVLRHLAQP |  |  |  |  | little effect
